Where two headings read alike, the source gives them in different places.

Among the data in patent US20160257697A1, “THIOPHENE-SUBSTITUTED TETRACYCLIC COMPOUNDS AND METHODS OFUSE THEREOF FOR THE TREATMENT OF VIRAL DISEASES” (priority 2013, published 2016) are IC50 values, retold here.

Holding throughout (assay): microbe, parasite or virus in culture
Common to all, as to assay type: cell-based, Hepatitis C virus (HCV)

One assay concerns HCV replicon 1AQ30D. The conditions noted are these: Replicon Assay B.
Another assay deals with HCV replicon 1B. As to conditions: HCV replicon 1B, Replicon Assay B. In general terms: Replicon systems follow genome replication, usually without infectious particles.
A further assay has as its system HCV replicon 1A. The conditions noted are these: HCV replicon 1A, Replicon Assay A. In short, it runs like this:
(§1)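 Compound is added to replicon cells plated at 2000 cells/well (0.5% DMSO, 5% FBS). After 3 days the cells are washed and lysed, and HCV RNA and cyclophilin mRNA are quantified by multiplex RT-PCR against a standard curve of known replicon total RNA.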

The next assay relates to HCV replicon 2B. The conditions noted are these: Replicon Assay A. In short, it runs like this: as §1
Another assay has as its system HCV replicon 1AY93H. In short, it runs like this: as §1
Where [1] appears, read: HCV replicon 1A Q30D, read-out: 1A Q30D IC50.
Setting [2] is: HCV replicon 2B, read-out: 2B IC50.
[3] abbreviates: HCV replicon 1A Y93H; Replicon Assay A; read-out: 1A Y93H IC50.
Setting [4] is: Hepatitis C virus, read-out: 1A Q30D IC50, HCV replicon 1A Q30D.
Setting [5] is: read-out: 2B IC50, HCV replicon 2B.
Where [6] appears, read: read-out: 1A Y93H IC50; HCV replicon 1A Y93H; Replicon Assay A.
The mark [7] stands for this setting: read-out: 1A Q30D IC50, HCV replicon 1A Q30D.

Turning to `COC(=O)N[C@H](C(=O)N1CCC[C@H]1c1ncc(-c2cc(F)c3c(c2)OC(c2ccc(C4CC4)s2)n2c-3cc3cc(-c4cnc([C@@H]5C[C@H]6C[C@H]6N5C(=O)[C@@H](NC(=O)OC)C5CCOCC5)[nH]4)ccc32)[nH]1)C(C)C` (single isomer, unassigned) [Compound 652], the IC50 (commonly the concentration that gives 50% inhibition) with HCV replicon 1AQ30D (setting [1]) turned out to be 327 pM; in the assay on HCV replicon 1B it was 1.7 pM; in the assay with HCV replicon 1A it was 1.2 pM; in the assay on HCV replicon 2B (setting [2]), 53.2 pM; with HCV replicon 1AY93H (setting [3]), 33.1 pM.

Take `COC(=O)N[C@H](C(=O)N1CCC[C@H]1c1ncc(-c2cc(F)c3c(c2)OC(c2ccc(C(F)(F)F)s2)n2c-3cc3cc(-c4cnc([C@@H]5CCCN5C(=O)[C@@H](NC(=O)OC)C5CCOCC5)[nH]4)ccc32)[nH]1)C(C)C` (single isomer, unassigned) [Compound 654]: the IC50 with HCV replicon 1AQ30D (setting [4]) was 83.9 pM; in the assay on HCV replicon 1B (Hepatitis C virus) it was 2 pM; in the assay with HCV replicon 1A (Hepatitis C virus), 1.1 pM; with HCV replicon 2B (setting [5]), 6.1 pM; with HCV replicon 1AY93H (setting [6]), 9.5 pM.

As for `COC(=O)NC(C(=O)N1CCC[C@H]1c1ncc(-c2ccc3c(c2)cc2n3C(c3ccc(C4CCCC4)s3)Oc3cc(-c4cnc([C@@H]5CCCN5C(=O)[C@@H](NC(=O)OC)C(C)C)[nH]4)cc(F)c3-2)[nH]1)C1C[C@@H](C)O[C@@H](C)C1` (single isomer, unassigned) [Compound 656], the IC50 is 48.1 pM in the assay on HCV replicon 1AQ30D (setting [7]); 2.8 pM with HCV replicon 1B; 1.5 pM in the assay on HCV replicon 1A; 2.6 pM in the assay on HCV replicon 2B (setting [5]); 2.5 pM in the assay with HCV replicon 1AY93H (setting [6]).

In the case of `COC(=O)NC(C(=O)N1CCC[C@H]1c1ncc(-c2ccc3c(c2)cc2n3C(c3ccc(C4CCCC4)s3)Oc3cc(-c4cnc([C@@H]5CCCN5C(=O)[C@@H](NC(=O)OC)C(C)C)[nH]4)cc(F)c3-2)[nH]1)C1C[C@@H](C)O[C@@H](C)C1` (single isomer, unassigned) [Compound 657], the IC50 in the assay on HCV replicon 1AQ30D (setting [7]) is 1140 pM; in the assay on HCV replicon 1B, 3.7 pM; in the assay with HCV replicon 1A, 2.5 pM; in the assay with HCV replicon 2B (setting [5]), 94.1 pM; in the assay on HCV replicon 1AY93H (setting [6]), 105 pM.

With `COC(=O)NC(C(=O)N1CCC[C@H]1c1ncc(-c2ccc3c(c2)cc2n3C(c3ccc(C4CCCC4)s3)Oc3cc(-c4cnc([C@@H]5CCCN5C(=O)[C@@H](NC(=O)OC)C(C)C)[nH]4)cc(F)c3-2)[nH]1)C1C[C@@H](C)O[C@@H](C)C1` (single isomer, unassigned) [Compound 658], the IC50 with HCV replicon 1AQ30D (setting [7]) worked out at 64.3 pM; in the assay on HCV replicon 1B, 8.4 pM; in the assay with HCV replicon 1A it was 3.2 pM; in the assay with HCV replicon 2B (setting [5]), 9.8 pM; in the assay on HCV replicon 1AY93H (setting [6]) it was 8.9 pM.

As for `COC(=O)NC(C(=O)N1[C@@H]2C[C@@H]2C[C@H]1c1ncc(-c2ccc3c(c2)cc2n3C(c3cc4c(s3)CCC4)Oc3cc(-c4cnc([C@@H]5CCCN5C(=O)[C@@H](NC(=O)OC)C(C)C)[nH]4)cc(F)c3-2)[nH]1)C(C)C` (single isomer, unassigned) [Compound 659], the IC50 is 535 pM in the assay on HCV replicon 1AQ30D (setting [4]); 1.91 pM with HCV replicon 1B (Hepatitis C virus); 3.5 pM with HCV replicon 1A (Hepatitis C virus); 122 pM with HCV replicon 2B (Hepatitis C virus, read-out: 2B IC50, HCV replicon 2B); 14.6 pM in the assay on HCV replicon 1AY93H (setting [6]).

As to `COC(=O)N[C@H](C(=O)N1CCC[C@H]1c1ncc(-c2ccc3c(c2)OC(c2cc4sccc4s2)n2c-3cc3cc(-c4c[nH]c([C@@H]5C[C@H]6C[C@H]6N5C(=O)[C@@H](NC(=O)OC)C(C)C)n4)ccc32)[nH]1)C(C)C` (single isomer, unassigned) [Compound 716], the IC50 was 28000 pM with HCV replicon 1AQ30D (setting [4]); 4 pM with HCV replicon 1B (Hepatitis C virus); 3.8 pM in the assay with HCV replicon 1A; 2320 pM in the assay with HCV replicon 2B (setting [5]); 1280 pM in the assay on HCV replicon 1AY93H (setting [6]).

Turning to `COC(=O)N[C@H](C(=O)N1CCC[C@H]1c1nc(-c2cc(F)c3c(c2)OC(c2ccc(C4CC4)s2)n2c-3cc3cc(-c4c[nH]c([C@@H]5C[C@H]6C[C@H]6N5C(=O)[C@@H](NC(=O)OC)C(C)C)n4)ccc32)c[nH]1)C(C)C` (single isomer, unassigned) [Compound 721], the IC50 amounted to 170 pM with HCV replicon 1AQ30D (setting [4]); 1.5 pM in the assay on HCV replicon 1B (Hepatitis C virus); 1.5 pM with HCV replicon 1A; 50 pM in the assay on HCV replicon 2B (setting [5]); 4.5 pM in the assay with HCV replicon 1AY93H (setting [6]).

Turning to `COC(=O)N[C@H](C(=O)N1CCC[C@H]1c1ncc(-c2cc(C)c3c(c2)OC(c2ccc(C4CC4)s2)n2c-3cc3cc(-c4cnc([C@@H]5CCCN5C(=O)[C@@H](NC(=O)OC)C(C)C)[nH]4)ccc32)[nH]1)C(C)C` (single isomer, unassigned) [Compound 751], the IC50 in the assay with HCV replicon 1AQ30D (setting [4]) is 996 pM; with HCV replicon 1B, 29 pM; in the assay on HCV replicon 1A it was 3.3 pM; in the assay with HCV replicon 2B (setting [5]), 27 pM; in the assay with HCV replicon 1AY93H (setting [6]), 510 pM.

With `COC(=O)N[C@H](C(=O)N1CCC[C@H]1c1ncc(-c2cc(C)c3c(c2)OC(c2ccc(C4CC4)s2)n2c-3cc3cc(-c4cnc([C@@H]5CCCN5C(=O)[C@@H](NC(=O)OC)C(C)C)[nH]4)ccc32)[nH]1)C(C)C` (single isomer, unassigned) [Compound 753], the IC50 was 639 pM in the assay on HCV replicon 1AQ30D (setting [7]); 2 pM in the assay with HCV replicon 1B; 5.7 pM in the assay with HCV replicon 1A; 23 pM in the assay with HCV replicon 2B (setting [5]); 60 pM in the assay on HCV replicon 1AY93H (setting [6]).

Regarding `COC(=O)N[C@H](C(=O)N1CCC[C@H]1c1ncc(-c2cc(C)c3c(c2)OC(c2ccc(C4CC4)s2)n2c-3cc3cc(-c4cnc([C@@H]5C[C@H]6C[C@H]6N5C(=O)[C@@H](NC(=O)OC)C(C)C)[nH]4)ccc32)[nH]1)C(C)C` (single isomer, unassigned) [Compound 754], the IC50 with HCV replicon 1AQ30D (setting [7]) turned out to be 433 pM; in the assay with HCV replicon 1B (Hepatitis C virus), 2.6 pM; in the assay with HCV replicon 1A (Hepatitis C virus), 2.4 pM; in the assay on HCV replicon 2B (setting [5]) it was 39 pM; in the assay on HCV replicon 1AY93H (setting [6]), 42 pM.

`COC(=O)N[C@H](C(=O)N1CCC[C@H]1c1ncc(-c2cc(C)c3c(c2)OC(c2ccc(C4CC4)s2)n2c-3cc3cc(-c4cnc([C@@H]5C[C@H]6C[C@H]6N5C(=O)[C@@H](NC(=O)OC)C(C)C)[nH]4)ccc32)[nH]1)C(C)C` (single isomer, unassigned) [Compound 755]: the IC50 was determined as 341 pM with HCV replicon 1AQ30D (setting [7]); 1.9 pM with HCV replicon 1B; 2.8 pM with HCV replicon 1A; 23 pM with HCV replicon 2B (setting [5]); 22 pM in the assay with HCV replicon 1AY93H (setting [6]).

With `COC(=O)N[C@H](C(=O)N1CCC[C@H]1c1ncc(-c2cc(C)c3c(c2)OC(c2ccc(C4CC4)s2)n2c-3cc3cc(-c4cnc([C@@H]5C[C@H]6C[C@H]6N5C(=O)[C@@H](NC(=O)OC)C(C)C)[nH]4)ccc32)[nH]1)C(C)C` (single isomer, unassigned) [Compound 756], the IC50 is 10200 pM in the assay with HCV replicon 1AQ30D (setting [7]); 2.2 pM in the assay on HCV replicon 1B; 3.6 pM in the assay on HCV replicon 1A; 600 pM in the assay with HCV replicon 2B (setting [5]); 640 pM with HCV replicon 1AY93H (setting [6]).

On to `COC(=O)N[C@H](C(=O)N1CCC[C@H]1c1ncc(-c2cc(C)c3c(c2)OC(c2ccc(C4CC4)s2)n2c-3cc3cc(-c4cnc([C@@H]5C[C@H]6C[C@H]6N5C(=O)[C@@H](NC(=O)OC)C5CCOCC5)[nH]4)ccc32)[nH]1)C(C)C` (single isomer, unassigned) [Compound 762], for which the IC50 stood at 25 pM with HCV replicon 1AQ30D (setting [7]); 3 pM in the assay on HCV replicon 1B (Hepatitis C virus); 2 pM in the assay with HCV replicon 1A (Hepatitis C virus); 4.8 pM in the assay with HCV replicon 2B (setting [5]); 5 pM in the assay with HCV replicon 1AY93H (setting [6]).

`COC(=O)N[C@H](C(=O)N1CCC[C@H]1c1ncc(-c2cc(C)c3c(c2)OC(c2ccc(C4CC4)s2)n2c-3cc3cc(-c4cnc([C@@H]5C[C@H]6C[C@H]6N5C(=O)[C@@H](NC(=O)OC)C5CCOCC5)[nH]4)ccc32)[nH]1)C(C)C` (single isomer, unassigned) [Compound 763]: the IC50 in the assay with HCV replicon 1AQ30D (setting [7]) came out at 2150 pM; in the assay with HCV replicon 1B, 2.5 pM; with HCV replicon 1A, 2.7 pM; with HCV replicon 2B (setting [5]) it was 62 pM; in the assay with HCV replicon 1AY93H (setting [6]), 120 pM.

For the compound `COC(=O)N[C@H](C(=O)N1CCC[C@H]1c1ncc(-c2cc(C)c3c(c2)OC(c2ccc(C4CC4)s2)n2c-3cc3cc(-c4cnc([C@@H]5C[C@H]6C[C@H]6N5C(=O)[C@@H](NC(=O)OC)C5CCOCC5)[nH]4)ccc32)[nH]1)C(C)C` (single isomer, unassigned) [Compound 764], the IC50 in the assay with HCV replicon 1AQ30D (setting [7]) came to 24 pM; with HCV replicon 1B, 2.2 pM; in the assay with HCV replicon 1A it was 3.6 pM; in the assay with HCV replicon 2B (setting [5]) it was 5.2 pM; with HCV replicon 1AY93H (setting [6]) it was 4.4 pM.

For the compound `COC(=O)N[C@H](C(=O)N1CCC[C@H]1c1ncc(-c2ccc3c(c2)OC(c2cc4ccccc4s2)n2c-3cc3cc(-c4cnc([C@@H]5C[C@@H](F)CN5C(=O)[C@@H](NC(=O)OC)C5CCOCC5)[nH]4)ccc32)[nH]1)C1CCOCC1` (single isomer, unassigned) [Compound 813], the IC50 in the assay with HCV replicon 1AQ30D (setting [4]) turned out to be 1400 pM; with HCV replicon 1B (Hepatitis C virus), 87 pM; in the assay with HCV replicon 1A, 43 pM; in the assay on HCV replicon 2B (setting [5]) it was 18 pM; with HCV replicon 1AY93H (setting [6]) it was 38 pM.

`COC(=O)N[C@H](C(=O)N1CCC[C@H]1c1ncc(-c2cc(F)c3c(c2)OC(c2ccc(C4(C)CC4)s2)n2c-3cc3cc(-c4cnc([C@@H]5CCCN5C(=O)[C@@H](NC(=O)OC)C(C)C)[nH]4)ccc32)[nH]1)C(C)C` (single isomer, unassigned) [Compound 836]: the IC50 with HCV replicon 1AQ30D (setting [1]) worked out at 297 pM; in the assay with HCV replicon 1B it was 1.8 pM; in the assay on HCV replicon 1A, 2.1 pM; in the assay on HCV replicon 2B (setting [2]), 60 pM; in the assay with HCV replicon 1AY93H (setting [3]), 16 pM.
